Source: ChEMBL document CHEMBL1201862, “PubChem BioAssay data set” (2004)
The source made the active and inactive calls.

How the values were obtained:
Major prion protein = Major prion protein (Homo sapiens, UniProt P04156); assay type: functional, cell-based
[1] = biological target: DNA (cytosine-5)-methyltransferase 1 (Homo sapiens, UniProt P26358); test: inhibition of DNA methylation by DNMT1 – biochemical, fluorescent molecular beacon, confirmation (AID 602386); assay type: functional
Genome polyprotein = Genome polyprotein (dengue virus type 2, UniProt P29990); test: flavivirus cap methylation enzyme inhibition – biochemical, confirmation dose response, primary screen (AID 588689); assay type: functional
[2] = intracellular Trypanosoma cruzi inhibitors in host cells – cell-based, plate reader, cherry-pick samples, set 3, dose response (AID 651818); assay type: functional;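 further: compounds incubated with infected cells for about four days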
[3] = T. cruzi growth inhibition in host cells, dose response, cell-based, plate reader, dry powder, set 2 (AID 652275); assay type: functional
INS1 = test: INS-1E survival protection against cytokine death – cell-based, luminescence, retest, dose response (AID 449756); assay type: functional; conditions: Rattus norvegicus;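 further: cell death triggered by IL-1 beta plus TNF-alpha plus IFN-gamma mixture; protective hits raise ATP signal compared with cytokine alone wells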
[4] = biological target: Photoreceptor-specific nuclear receptor (Homo sapiens, UniProt Q9Y5X4); assay type: functional, cell-based;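 further: CHO-S cells with Gal4-NCOR and VP16-NR2E3 two-hybrid luciferase reporter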
[5] = biological target: T1, Small ubiquitin-related modifier 1 (Homo sapiens, UniProt P63165); test: SUMO1 protein-protein binding blockers, potency – biochemical, FRET, dose response (AID 624383); assay type: functional; conditions: read-out: IC50_Mean
[6] = biological target: T1, Small ubiquitin-related modifier 1; test: SUMO1 protein interaction blockers, potency – biochemical, fluorescence polarization, uHTS hits, dose response (AID 624382); assay type: functional; conditions: read-out: IC50_Mean
[7] = biological target: T2, High affinity choline transporter 1 (Homo sapiens, UniProt Q9GZV3); test: human choline transporter blockers, potency – cell-based, 10-point CRC, membrane potential dye, dose response (AID 588401); assay type: functional;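 further: membrane potential dye fluorescence of choline-evoked depolarization via CHT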
T2 sequence (Q9GZV3 whole entry): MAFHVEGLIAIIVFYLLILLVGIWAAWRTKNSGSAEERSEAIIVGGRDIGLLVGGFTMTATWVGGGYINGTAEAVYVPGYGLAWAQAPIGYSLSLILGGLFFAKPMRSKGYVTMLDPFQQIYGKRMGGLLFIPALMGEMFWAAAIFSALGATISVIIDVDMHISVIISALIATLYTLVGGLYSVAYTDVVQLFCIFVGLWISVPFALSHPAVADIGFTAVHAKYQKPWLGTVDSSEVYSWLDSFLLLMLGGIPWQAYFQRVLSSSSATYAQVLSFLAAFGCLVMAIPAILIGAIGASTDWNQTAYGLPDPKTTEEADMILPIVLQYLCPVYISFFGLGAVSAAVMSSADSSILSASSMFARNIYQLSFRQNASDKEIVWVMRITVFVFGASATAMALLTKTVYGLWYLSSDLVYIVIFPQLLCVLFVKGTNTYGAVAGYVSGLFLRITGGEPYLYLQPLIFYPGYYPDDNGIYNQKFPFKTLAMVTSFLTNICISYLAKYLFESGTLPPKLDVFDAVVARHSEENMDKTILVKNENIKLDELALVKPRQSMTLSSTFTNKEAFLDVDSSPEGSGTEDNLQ

[8] = biological target: T2, High affinity choline transporter 1; test: human choline transporter blockers, potency – cell-based, 5-point CRC, membrane potential dye, dose response (AID 504840); assay type: functional
[9] = biological target: 5-hydroxytryptamine receptor 2A (Mus musculus, UniProt P35363); assay type: functional, cell-based;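 further: CHO-K1 cells with tagged receptor and beta-arrestin; agonist potency measured as compound-induced activation of the receptor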
Mu-type opioid receptor = Mu-type opioid receptor (Homo sapiens, UniProt P35372); assay type: functional, cell-based;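 further: U2OS cells with beta-arrestin recruitment to OPRM1 by beta-gal complementation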
Cytochrome P450 2C9 = Cytochrome P450 2C9 (Homo sapiens, UniProt P11712)
[10] = biological target: T3, RNA-binding protein pos-1 (Caenorhabditis elegans, UniProt G5EF15); test: disruptors of C. elegans POS-1 RNA interaction – biochemical, fluorescence polarization, dose response (AID 1964);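 further: purified POS-1 fused to maltose binding protein made in E. coli; potency of compounds blocking POS-1 binding to fluorescent RNA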
T3 sequence (G5EF15 whole entry): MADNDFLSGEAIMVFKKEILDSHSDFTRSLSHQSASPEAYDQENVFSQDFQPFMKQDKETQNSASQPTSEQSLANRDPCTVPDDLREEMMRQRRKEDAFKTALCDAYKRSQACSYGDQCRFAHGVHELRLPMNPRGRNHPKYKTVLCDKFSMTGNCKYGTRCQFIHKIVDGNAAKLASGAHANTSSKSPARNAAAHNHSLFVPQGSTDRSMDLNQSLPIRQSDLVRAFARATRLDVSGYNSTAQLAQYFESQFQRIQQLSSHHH

[11] = biological target: T4, Probable nicotinate-nucleotide adenylyltransferase (Staphylococcus aureus (strain N315), UniProt P65502); assay type: functional, Staphylococcus aureus subsp. aureus N315; conditions: read-out: IC50_Mean;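 on IC50 Mean: confirmatory dose-response retesting of NadD inhibitor hits first found in an ultra-high-throughput screen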
[12] = biological target: T5, Zinc finger protein mex-5 (Caenorhabditis elegans, UniProt Q9XUB2); test: potency of MEX-5 RNA-binding blockers – biochemical, C. elegans, fluorescence polarization, dose response (AID 1960)
T5 sequence (Q9XUB2 whole entry): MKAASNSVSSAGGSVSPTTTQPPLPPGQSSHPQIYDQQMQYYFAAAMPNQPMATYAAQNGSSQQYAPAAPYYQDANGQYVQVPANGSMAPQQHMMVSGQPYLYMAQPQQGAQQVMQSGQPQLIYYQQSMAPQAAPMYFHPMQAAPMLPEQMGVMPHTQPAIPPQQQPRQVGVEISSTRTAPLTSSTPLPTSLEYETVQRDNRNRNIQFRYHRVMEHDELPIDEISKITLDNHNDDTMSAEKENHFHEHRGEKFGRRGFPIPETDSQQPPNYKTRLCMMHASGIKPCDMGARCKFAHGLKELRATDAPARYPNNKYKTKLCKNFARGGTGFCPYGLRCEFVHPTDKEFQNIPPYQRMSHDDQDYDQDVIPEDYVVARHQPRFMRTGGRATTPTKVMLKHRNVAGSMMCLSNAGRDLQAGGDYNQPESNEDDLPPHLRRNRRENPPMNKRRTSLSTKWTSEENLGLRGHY

[13] = biological target: T4, Probable nicotinate-nucleotide adenylyltransferase; assay type: functional, Staphylococcus aureus subsp. aureus N315
[14] = biological target: T6, Carboxy-terminal domain RNA polymerase II polypeptide A small phosphatase 1 (Homo sapiens, UniProt Q9GZU7); test: CTDSP1 inhibitors, concentration-response, biochemical, absorbance readout, ultra-high-throughput screen actives (AID 540297); assay type: functional
T6 sequence (Q9GZU7 whole entry): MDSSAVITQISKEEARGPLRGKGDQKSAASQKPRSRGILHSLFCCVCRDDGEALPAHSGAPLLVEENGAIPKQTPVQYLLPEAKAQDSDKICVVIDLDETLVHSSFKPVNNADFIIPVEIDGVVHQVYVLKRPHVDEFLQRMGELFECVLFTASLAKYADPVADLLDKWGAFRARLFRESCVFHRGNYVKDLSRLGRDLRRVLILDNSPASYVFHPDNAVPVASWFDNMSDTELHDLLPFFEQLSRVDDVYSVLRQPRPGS

[15] = OVCAR8 cell viability loss – plate reader, dry powder samples, PAX8 project, dose response (AID 743197); assay type: functional, cell-based; conditions: OVCAR-8
[16] = OVCAR-3 cell viability loss – plate reader, dry powder samples, PAX8 inhibitor project, dose response (AID 743044); assay type: functional, cell-based
Paired box protein Pax-8 = Paired box protein Pax-8 (Homo sapiens, UniProt Q06710); test: PAX8 transcriptional activity inhibition in RMG-I – RMG-I cells, luciferase, cherry-pick, dose response (AID 687027); assay type: functional, cell-based;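 further: luciferase reporter driven by Pax8 target thyroperoxidase promoter measured by SteadyGlo luminescence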
[17] = IGROV1 cell killing – plate reader, dry powder samples, PAX8 inhibitor project, dose response (AID 743043); assay type: functional, cell-based; conditions: IGROV-1
[18] = blockade of melanocortin 4 receptor signaling – cell-based, plate reader, cherry pick, counter-screen for LGR2 antagonist project, dose response (AID 743444); assay type: functional;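 further: transfected HEK 293 cells stimulated with alpha-MSH peptide; potency of inhibitors of the alpha-MSH evoked signal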
[19] = biological target: T7, COUP transcription factor 2 (Homo sapiens, UniProt P24468); test: Luminescence-based cell-based high throughput dose response assay to identify inhibitors of COUP-TFII (NR2F2).; assay type: functional;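 further: HEK293 cells transiently cotransfected with COUP-TFII expression vector and reporter; luciferase reporter luminescence driven by COUP-TFII from the pX2-168 reporter plasmid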
T7 sequence (P24468 whole entry): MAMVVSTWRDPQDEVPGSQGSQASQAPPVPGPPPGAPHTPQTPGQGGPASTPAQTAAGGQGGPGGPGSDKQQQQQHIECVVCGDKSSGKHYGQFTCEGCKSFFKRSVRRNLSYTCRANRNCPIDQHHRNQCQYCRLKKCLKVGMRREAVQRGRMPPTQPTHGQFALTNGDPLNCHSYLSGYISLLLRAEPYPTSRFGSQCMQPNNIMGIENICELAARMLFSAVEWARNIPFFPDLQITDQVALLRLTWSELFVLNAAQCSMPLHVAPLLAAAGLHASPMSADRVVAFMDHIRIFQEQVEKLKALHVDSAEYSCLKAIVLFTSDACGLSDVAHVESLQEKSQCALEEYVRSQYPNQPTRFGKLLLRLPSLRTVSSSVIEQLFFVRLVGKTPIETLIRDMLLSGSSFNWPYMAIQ

[20] = biological target: T8, ATP-dependent translocase ABCB1 (Homo sapiens, UniProt P08183); test: inhibition of BCRP-mediated JC-1 efflux – Ig-MXP3 cells, flow cytometry, set 2, dose response (AID 504566); assay type: functional; conditions: read-out: EC50_MICROM_;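 further: flow cytometry median green fluorescence of retained JC-1 dye; potency of efflux pump inhibition measured as rising substrate retention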
H9c2 = test: cells; assay type: functional, cell-based; conditions: Rattus norvegicus, H9c2, Myocardium
[21] = viability loss in HEK293 cells – cell-based, plate reader, cherry-picked samples, cytotoxicity control, dose response (AID 743446); assay type: functional
[22] = biological target: T8, ATP-dependent translocase ABCB1; test: P-gp JC-1 efflux blockade concentration-response – Jurkat-DNR cells, flow cytometry, set 2, dose response (AID 504569); assay type: functional; conditions: read-out: EC50_MICROM_;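 further: potency of pump inhibitors that raise cellular JC-1 green fluorescence up to the nicardipine level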
[23] = toxicity toward HepG2 liver cells – cell-based, plate reader, cherry-pick, antagonist series, cytotoxicity control, dose response (AID 743416); assay type: functional
[24] = blockers of bursicon-stimulated LGR2 cAMP reporter – cell-based, HEK293, CRE-luciferase reporter, cherry pick, set 2, dose response (AID 743343); assay type: functional;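 further: transfected cells were stimulated with diluted bursicon conditioned medium after compound addition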
[25] = A549 cell cytotoxicity, dose response, cytotoxicity control, plate reader, cherry-pick, antagonist series (AID 743412); assay type: functional, cell-based
[26] = activation of miR-122 Renilla sensor silencing – cell-based, Huh7 psiCHECK-miR122, Renilla luciferase, cherry-picked, dose response (AID 651956); assay type: functional;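 further: huh7 hepatoma cells stably carrying a psiCHECK-2 miR-122 sensor plasmid; renilla luciferase signal reporting endogenous miR-122 activity after 48 h compound exposure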
Beta-lactamase [27] = biological target: Beta-lactamase (Salmonella choleraesuis (strain SC-B67), UniProt Q5J463)
Beta-lactamase [28] = biological target: Beta-lactamase (Pseudomonas aeruginosa, UniProt Q79MP6);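 further: biochemical dose-response test of metallo-beta-lactamase enzyme inhibition, read out by epi-absorbance; purified recombinant IMP-1 metallo-beta-lactamase with nitrocefin as substrate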

## Cn1c(=O)c(C(=O)CSc2nncs2)c(N)n(Cc2ccccc2)c1=O
Major prion protein
  IC50: 8.53 µM (active)
cells
  IC50: > 138 µM (inactive)

## Nc1ccc(S(=O)(=O)Nc2nccs2)cc1N=Nc1ccccc1[N+](=O)[O-]
[1]
  IC50: 7.09 µM (active)
Genome polyprotein
  IC50: 64.7 µM (active)

## C[C@@H]1CCCCO[C@@H](CN(C)Cc2ccc(C(F)(F)F)cc2)[C@@H](C)CN([C@H](C)CO)C(=O)c2cc(NC(=O)Nc3ccc(C(F)(F)F)cc3)ccc2O1
[2]
  AC50: 3.49 µM (active)

## Cc1ccccc1-c1ccc([C@H]2[C@H](CO)N3CCCCN(C(=O)CN4CCOCC4)C[C@@H]23)cc1
[3]
  AC50: 0.42 µM (active)

## O=[N+]([O-])c1ccc(NC(S)=NCCc2ccc(F)cc2)cc1
INS1
  AC50: 6.89 µM (active)
[4]
  IC50: 5.06 µM (active)

## COc1ccc(OC)c(Nc2nc3ccccc3n3cnnc23)c1
[5]
  IC50: 19.2 µM (active)
[6]
  IC50: > 66.6 µM (inactive)

## NC(=O)CC(NC(=O)c1ccccc1)c1ccc(N2CCCCCCC2)c([N+](=O)[O-])c1 (stereo not drawn)
[7]
  IC50: 6.21 µM (active)
[8]
  IC50: 6.41 µM (active)

## COC(=O)C1CCN(CC(=O)Nc2ccc3c(c2)OCCO3)CC1
[9]
  EC50: 76.1 µM (inactive)
Mu-type opioid receptor
  EC50: 92.5 µM (inactive)

## Cc1ccc(-c2nc(NC(=O)CSc3nnnn3-c3ccccc3)ns2)cc1
[4]
  IC50: 1.06 µM (active)

## CC(=O)NN1C(=O)c2ccc(Oc3cccc([N+](=O)[O-])c3)cc2C1=O
[7]
  IC50: 4.5 µM (active)
Cytochrome P450 2C9
  AC50: 31.6 µM (inconclusive)
[8]
  IC50: 9.92 µM (active)

## C[C@H]1CN([C@@H](C)CO)C(=O)Cc2cc(NS(=O)(=O)c3ccc(Cl)cc3)ccc2O[C@@H]1CN(C)Cc1ccc(-c2ccccc2)cc1
[2]
  AC50: 3.8 µM (active)

## CCCCC1=CC2=CC(=O)C(C)(OC(=O)c3cccs3)C(=O)C2=CO1 (stereo not drawn)
[10]
  EC50: 35.4 µM (active)
[11]
  IC50: 34.4 µM (active)
[12]
  EC50: 30.9 µM (active)
[13]
  IC50: 10.9 µM (active)

## CCOC(=O)c1c(NC(=O)COC(=O)c2ccc(NC(=O)CC#N)cc2)sc(C(=O)NC)c1C
[14]
  IC50: 3.43 µM (active)
[5]
  IC50: 6.69 µM (active)
[6]
  IC50: > 66.6 µM (inactive)

## COc1cccc(-c2ccc3c(c2)[C@H]2[C@H](CCN2S(=O)(=O)c2ccccc2OC)[C@@H](CO)N3C)c1
[15]
  AC50: 25.4 µM (active)
[16]
  AC50: 21.6 µM (active)
Paired box protein Pax-8
  AC50: 11.1 µM (active)
[17]
  AC50: 34.3 µM (active)

## CCCN(CCC)C1CCc2ccc(O)cc2C1 (stereo not drawn)
[9]
  EC50: 0.0038 µM (active)
Mu-type opioid receptor
  EC50: 92.4 µM (inactive)

## COc1ccccc1-c1cc2nc(-c3ccccc3)cc(N3CCN(C(=O)c4ccco4)CC3)n2n1
[18]
  AC50: 6.15 µM (active)
[19]
  IC50: 4.17 µM (active)
[20]
  EC50: 0.94 µM (active)
H9c2
  IC50: > 79 µM (inactive)
[21]
  AC50: 7.31 µM (active)
[22]
  EC50: 3.41 µM (active)
[23]
  AC50: 2.29 µM (active)
[24]
  AC50: 6.6 µM (active)
[25]
  AC50: 7.34 µM (active)

## Cc1nc2cc(-c3cccc(Cl)c3)nn2c(N2CCN(C(=O)c3ccsc3)CC2)c1C
[20]
  EC50: 0.56 µM (active)
[22]
  EC50: 4.62 µM (active)

## CCc1ccc(C(C)N=C(S)NC2CCCCC2)cc1 (stereo not drawn)
[7]
  IC50: 11.2 µM (active)
[8]
  IC50: 7.86 µM (active)

## CNC(=O)C[C@H]1CC[C@@H]2[C@H](COc3ccc(NC(=O)Nc4ccccc4OC)cc3C(=O)N2C)O1
[26]
  AC50: 23.1 µM (active)

## Cc1nn(-c2ccccc2)c(Cl)c1/C=C(\CC(=O)O)c1nc2ccccc2s1
Beta-lactamase [27]
  IC50: > 59.6 µM (inactive)
Beta-lactamase [28]
  IC50: > 59.6 µM (inactive)
